Measurements published in PubChem BioAssay (NCI).
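Where inhibition never reached the appropriate level, the endpoint shown equals the highest concentration tested. Otherwise, values were interpolated linearly from a five-concentration, 48-hour dose response in 96-well plates. At the GI50, growth is halved. At the TGI there is no net growth.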

Legend:
Test in all cases: NCI tumour cell line growth inhibition, 48 h
[1] = tested on: SF-539 CNS
[2] = tested on: DU-145 prostate
[3] = tested on: PC-3 prostate
[4] = tested on: ACHN renal
[5] = tested on: CCRF-CEM leukemia
[6] = tested on: MDA-MB-435
[7] = tested on: T-47D breast
[8] = tested on: SNB-78 CNS
[9] = tested on: DMS 273 small cell lung
[10] = tested on: HCT-116 colon
[11] = tested on: OVCAR-8 ovarian
[12] = tested on: HOP-62 NSCLC
[13] = tested on: A549 NSCLC
[14] = tested on: P388/ADR leukemia

Work on `CN1CCN(Cn2nc(-c3cc(F)c(Cl)cc3Cl)oc2=S)CC1` yielded a GI50 [1] of 29.9 µM, a TGI [1] of 71.5 µM and a GI50 [2] of 41.4 µM. The TGI [2] was greater than 100 µM, the GI50 [3] was 43 µM and the TGI [3] was greater than 100 µM. It also gave a GI50 [4] of 34.6 µM, a TGI [4] greater than 100 µM and a GI50 [5] of 33.4 µM. The TGI [5] was greater than 100 µM, the GI50 [6] was 40.5 µM and the TGI [6] was greater than 100 µM. The TGI [7] was 27 µM.

For `COc1cccc2c1C(=O)c1c(O)c3c(c(O)c1C2=O)CC(O)(C(C)=O)CC3O` (stereo not given), the TGI [8] was 48 µM, the TGI [1] was 21.3 µM and the TGI [9] was 15.6 µM. The TGI [5] was 23.2 µM, the TGI [10] was 10.1 µM and the TGI [11] was 10.6 µM. For the same molecule, the TGI [12] was 11.3 µM, the TGI [13] was 23.4 µM and the TGI [14] was 9.23 µM.

`O=c1[nH]c(-c2ccc(Cl)cc2)cc2ccsc12` showed a TGI [2] of 6.68 µM, a TGI [3] greater than 100 µM and a TGI [4] greater than 100 µM. For the same molecule, the TGI [10] was greater than 100 µM, the TGI [11] was greater than 100 µM and the TGI [12] was greater than 100 µM. It also gave a TGI [13] greater than 100 µM and a TGI [7] of 59.9 µM.
